Laboratory results published in ChEMBL document CHEMBL5584248, “Synthesis and biological characterization of an orally bioavailable lactate dehydrogenase-A inhibitor against pancreatic cancer” (Eur J Med Chem, 2024).
One block for each compound: values may come before it.

Experiments:
[1] = molecular target: L-lactate dehydrogenase B chain (Homo sapiens, UniProt P07195); assay: Inhibition of human LDH-B incubated for 10 mins in presence of […] by fluorescence based reader assay
[2] = molecular target: L-lactate dehydrogenase A chain (Homo sapiens, UniProt P00338); assay: Inhibition of human LDH-A incubated for 10 mins in presence of […] by fluorescence based reader assay
PANC-1 = assay: Antiproliferative activity against human PANC-1 cells incubated for 48 hrs by Hoechst 33342 and SYTOX green staining based confocal imaging analysis; type: functional, cell-based; conditions: PANC-1, 48 h
[3] = Cytotoxicity against HPNEs incubated for 48 hrs by Hoechst 33342 and SYTOX green staining based confocal imaging analysis; type: toxicity, cell-based; conditions: human, HPNE cells
[4] = Clearance in CD1 mouse at 1 mg/kg, iv; type: ADME, organism-based; conditions: CD1, mouse, in vivo
[5] = Drug metabolism in mouse assessed as Cmax of 4-((4-(1-methyl-1H-imidazole-2-carbonyl)phenyl)amino)-4-oxo-2-(4-(trifluoromethyl)phenyl)butanoic acid at 1 mg/kg, iv; type: ADME, organism-based; conditions: in vivo
[6] = Drug metabolism in mouse assessed as tmax of 4-((4-(1-methyl-1H-imidazole-2-carbonyl)phenyl)amino)-4-oxo-2-(4-(trifluoromethyl)phenyl)butanoic acid at 1 mg/kg, iv; type: ADME, organism-based; conditions: in vivo
[7] = Drug metabolism in mouse assessed as AUC(0 to infinity) of 4-((4-(1-methyl-1H-imidazole-2-carbonyl)phenyl)amino)-4-oxo-2-(4-(trifluoromethyl)phenyl)butanoic acid at 1 mg/kg, iv; type: ADME, organism-based; conditions: in vivo
[8] = Drug metabolism in mouse assessed as metabolite 4-((4-(1-methyl-1H-imidazole-2-carbonyl)phenyl)amino)-4-oxo-2-(4-(trifluoromethyl)phenyl)butanoic acid cumulative half-life by LC-MS/MS analysis; type: ADME
[9] = Volume of distribution in CD1 mouse at 1 mg/kg, iv; type: ADME, organism-based; conditions: in vivo
[10] = Half-life in CD1 mouse at 1 mg/kg, iv; type: ADME, organism-based; conditions: in vivo
[11] = Tmax in CD1 mouse at 5 mg/kg, po; type: ADME, organism-based; conditions: in vivo
[12] = Cmax in CD1 mouse at 1 mg/kg, iv; type: ADME, organism-based; conditions: in vivo
[13] = AUC(0 to infinity) in CD1 mouse at 1 mg/kg, iv; type: ADME, organism-based; conditions: in vivo
[14] = Drug metabolism in mouse assessed as AUC(0 to infinity) of 4-((4-(1-methyl-1H-imidazole-2-carbonyl)phenyl)amino)-4-oxo-2-(4-(trifluoromethyl)phenyl)butanoic acid at 5 mg/kg, po; type: ADME, organism-based; conditions: in vivo
[15] = Drug metabolism in mouse assessed as half-life of 4-((4-(1-methyl-1H-imidazole-2-carbonyl)phenyl)amino)-4-oxo-2-(4-(trifluoromethyl)phenyl)butanoic acid at 5 mg/kg, po; type: ADME, organism-based; conditions: in vivo
[16] = Cmax in CD1 mouse at 5 mg/kg, po; type: ADME, organism-based; conditions: in vivo
[17] = Drug metabolism in mouse assessed as tmax of 4-((4-(1-methyl-1H-imidazole-2-carbonyl)phenyl)amino)-4-oxo-2-(4-(trifluoromethyl)phenyl)butanoic acid at 5 mg/kg, po; type: ADME, organism-based; conditions: in vivo
MIA PaCa-2 = assay: Antiproliferative activity against human MIA PaCa-2 cells incubated for 48 hrs by Hoechst 33342 and SYTOX green staining based confocal imaging analysis; type: functional, cell-based; conditions: MIA PaCa-2, 48 h
[18] = Drug metabolism in mouse assessed as half-life of 4-((4-(1-methyl-1H-imidazole-2-carbonyl)phenyl)amino)-4-oxo-2-(4-(trifluoromethyl)phenyl)butanoic acid at 1 mg/kg, iv; type: ADME, organism-based; conditions: in vivo
[19] = Half-life in CD1 mouse at 5 mg/kg, po; type: ADME, organism-based; conditions: in vivo
[20] = Drug metabolism in mouse assessed as Cmax of 4-((4-(1-methyl-1H-imidazole-2-carbonyl)phenyl)amino)-4-oxo-2-(4-(trifluoromethyl)phenyl)butanoic acid at 5 mg/kg, po; type: ADME, organism-based; conditions: in vivo
[21] = Antiproliferative activity against mouse FC-1199 cells incubated for 48 hrs by Hoechst 33342 and SYTOX green staining based confocal imaging analysis; type: functional, cell-based; conditions: FC-1199, 48 h
[22] = AUC(0 to infinity) in CD1 mouse at 5 mg/kg, po; type: ADME, organism-based; conditions: in vivo
[23] = Oral bioavailability in CD1 mouse at 5 mg/kg; type: ADME, organism-based; conditions: in vivo

Chain of L-lactate dehydrogenase B chain (P07195 whole entry): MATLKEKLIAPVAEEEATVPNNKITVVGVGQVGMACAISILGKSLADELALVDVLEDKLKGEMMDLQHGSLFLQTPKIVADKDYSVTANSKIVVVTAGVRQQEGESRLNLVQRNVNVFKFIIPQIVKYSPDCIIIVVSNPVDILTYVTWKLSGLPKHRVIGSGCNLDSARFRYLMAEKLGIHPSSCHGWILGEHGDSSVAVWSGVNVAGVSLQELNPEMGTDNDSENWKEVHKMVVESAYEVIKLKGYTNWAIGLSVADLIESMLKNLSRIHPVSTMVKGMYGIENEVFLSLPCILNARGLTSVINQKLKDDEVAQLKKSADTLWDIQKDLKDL

IC50 [1]: > 100 µM
IC50 [2]: > 100 µM
Compound: O=C(O)CC(NC(=O)CCc1ccccc1)c1cccc(Cl)c1 (stereo not given)

IC50 [2]: 2.49 µM
Compound: COC(=O)C(CC(=O)Nc1ccc(C(=O)c2nccn2C)cc1)c1ccccc1 (stereo not given)

clearance [4]: 110 mL/min/kg
Cmax [5]: 1010 nM
Tmax [6]: 0.5 h
AUC [7]: 4.04 µM·h
t1/2 [8]: 4.5 h
Vd [9]: 10 L/kg
half-life [10]: 1.19 h
Tmax [11]: 0.25 h
Cmax [12]: 1020 nM
AUC(0-inf) [13]: 0.328 µM·h
AUC [14]: 25.96 µM·h
t1/2 [15]: 2.92 h
Cmax [16]: 480 nM
Tmax [17]: 0.5 h
t1/2 [18]: 2.18 h
half-life [19]: 1.63 h
Cmax [20]: 9760 nM
AUC(0-inf) [22]: 0.551 µM·h
F [23]: 73%
Compound: COC(=O)C(CC(=O)Nc1ccc(C(=O)c2nccn2C)cc1)c1ccc(C(F)(F)F)cc1 (stereo not given)
IC50 (PANC-1): 23.9 µM
IC50 at 48 h [3]: 49.5 µM
IC50 (MIA PaCa-2): 25.6 µM
IC50 [21]: 12.1 µM

IC50 [2]: 0.19 µM
Compound: Cn1ccnc1C(=O)c1ccc(NC(=O)CC(C(=O)O)c2ccc(Cl)cc2)cc1 (stereo not given)

IC50 [2]: 79.3 µM
Compound: O=C(CC(C(=O)O)c1ccc(C(F)(F)F)cc1)Nc1ccc(C(=O)c2ccccc2)cc1 (stereo not given)

IC50 [2]: 54.5 µM
Compound: COc1ccc(C(CC(=O)Nc2ccc(C(=O)c3nccn3C)cc2)C(=O)O)cc1 (stereo not given)

IC50 [2]: 29.9 µM
Compound: Cn1ccnc1C(=O)c1ccc(NC(=O)CC(C(=O)O)c2csc(-c3ccccc3)n2)cc1 (stereo not given)

IC50 [1]: > 100 µM
IC50 [2]: > 100 µM
Compound: O=C(O)CC(NC(=O)Cc1ccc(C(F)(F)F)cc1)c1cccc(Cl)c1 (stereo not given)

IC50 [2]: 37.8 µM
Compound: COC(=O)C(CC(=O)Nc1ccc(C(=O)c2nccn2C)cc1)c1ccc(F)cc1 (stereo not given)

IC50 [1]: > 100 µM
IC50 [2]: > 100 µM
Compound: COC(=O)C(CC(=O)Nc1ccc(Cl)nn1)c1ccc(C(F)(F)F)cc1 (stereo not given)
